Values quoted from earlier work, collected in patent US20220257562A1, “METHOD FOR IMPROVING ENDOMETRIOSIS AND METHOD FOR PRODUCING A MATERIAL USED THEREFOR” (NICHIMO CO., LTD., priority 2017, published 2022).

Columns and labels:
MCF-7 = details: for effect on tamoxifen: MCF-7 / mammary tumors, Non-patent Literature 15, 17; for cell proliferation of estrogen-dependent breast cancer cells (MCF-7): Non-patent Literature 14, 16
ERβ = ERβ (Homo sapiens, UniProt Q92731); details: Non-Patent Literature 23
ERβ, sequence (Q92731 whole entry, species assumed): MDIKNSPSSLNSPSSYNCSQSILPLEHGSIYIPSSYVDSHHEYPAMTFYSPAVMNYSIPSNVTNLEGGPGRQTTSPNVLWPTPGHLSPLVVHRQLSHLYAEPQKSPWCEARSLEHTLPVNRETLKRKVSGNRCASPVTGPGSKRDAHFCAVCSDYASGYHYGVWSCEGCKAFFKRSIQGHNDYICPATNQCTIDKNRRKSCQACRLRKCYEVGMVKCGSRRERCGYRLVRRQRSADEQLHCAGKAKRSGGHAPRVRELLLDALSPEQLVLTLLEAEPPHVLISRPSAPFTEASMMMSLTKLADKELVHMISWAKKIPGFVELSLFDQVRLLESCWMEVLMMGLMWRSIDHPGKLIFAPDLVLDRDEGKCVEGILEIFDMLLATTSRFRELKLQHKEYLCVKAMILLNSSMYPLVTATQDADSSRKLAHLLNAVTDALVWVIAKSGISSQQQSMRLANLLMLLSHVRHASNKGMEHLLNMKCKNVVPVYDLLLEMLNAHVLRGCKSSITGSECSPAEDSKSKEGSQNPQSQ

Compound	effect on tamoxifen (MCF-7)	cell proliferation of estrogen-dependent breast cancer cells (MCF-7) (MCF-7)	binding to ERβ (ERβ)
O=c1c(-c2ccc(O)cc2)coc2cc(O)ccc12 [daidzein]	improved the therapeutic effect of tamoxifen	suppressed the proliferation	binds weakly
O=c1c(-c2ccc(O)cc2)coc2cc(O)cc(O)c12 [Genistein, genistein]	attenuates the inhibitory effect of tamoxifen	promotes cell proliferation	–
